Broadly, the IC50 is the concentration at which inhibition is half-maximal.

The subject of experiment [1] is MOLM-14 D835Y (endogenous FLT3 ITD and transfected FLT3 D835Y). Kind of experiment: MOLM-14 D835Y cell proliferation assay (CellTiter-Glo). It counts as cell-based. Conditions: Homo sapiens, MOLM-14, 72 h; 3 d growth, GMean. The method, boiled down:
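Three-day proliferation at 37 °C/5% CO2 of FLT3-ITD MOLM-14 lines with D835Y or F691L mutation, seeded 1×10^4 per well. Compounds at eight points, top 1 μM final, 0.2% DMSO. ATP luminescence (CellTiter-Glo) gives IC50.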

Experiment [2] has as its target T1, FLT3-ITD (Homo sapiens, UniProt P36888).
T1 sequence (P36888 1-993): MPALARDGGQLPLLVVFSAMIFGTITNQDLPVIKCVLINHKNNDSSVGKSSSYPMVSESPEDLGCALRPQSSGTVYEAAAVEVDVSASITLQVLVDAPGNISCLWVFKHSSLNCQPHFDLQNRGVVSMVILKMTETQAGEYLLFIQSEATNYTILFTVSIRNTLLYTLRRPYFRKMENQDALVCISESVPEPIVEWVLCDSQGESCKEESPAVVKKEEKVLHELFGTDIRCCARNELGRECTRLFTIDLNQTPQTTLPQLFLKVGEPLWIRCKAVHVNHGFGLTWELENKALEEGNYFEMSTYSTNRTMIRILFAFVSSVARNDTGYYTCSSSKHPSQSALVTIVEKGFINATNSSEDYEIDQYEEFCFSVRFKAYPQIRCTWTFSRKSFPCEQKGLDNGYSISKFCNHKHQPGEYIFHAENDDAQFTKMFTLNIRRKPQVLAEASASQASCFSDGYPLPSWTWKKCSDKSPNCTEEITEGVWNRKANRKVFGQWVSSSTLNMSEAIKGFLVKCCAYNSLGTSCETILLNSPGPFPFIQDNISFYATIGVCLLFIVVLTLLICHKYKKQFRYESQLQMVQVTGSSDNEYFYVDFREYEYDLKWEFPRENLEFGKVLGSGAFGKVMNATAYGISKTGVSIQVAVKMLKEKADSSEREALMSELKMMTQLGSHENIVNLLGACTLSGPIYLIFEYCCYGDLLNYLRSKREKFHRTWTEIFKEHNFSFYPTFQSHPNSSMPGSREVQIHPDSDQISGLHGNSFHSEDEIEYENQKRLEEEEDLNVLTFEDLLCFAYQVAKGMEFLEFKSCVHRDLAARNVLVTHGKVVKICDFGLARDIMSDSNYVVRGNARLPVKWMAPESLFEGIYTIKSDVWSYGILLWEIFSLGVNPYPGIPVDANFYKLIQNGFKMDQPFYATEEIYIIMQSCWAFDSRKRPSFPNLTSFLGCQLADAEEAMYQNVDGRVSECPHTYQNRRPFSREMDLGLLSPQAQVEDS
Kind of experiment: FLT3-ITD recombinant enzyme kinase assay (AlphaScreen). It is filed as biochemical. The conditions noted are these: 8 pt; read-out: FLT3_ITD 8 pt: IC50. Summed up:
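IC50 values are derived from reduced AlphaScreen signal as inhibitors block tyrosine phosphorylation of a biotinylated poly(Glu4-Tyr) peptide (30 nM) by recombinant kinase. FLT3 variants are run at 10 μM ATP, c-KIT at 100 μM.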
(In general: Bead proximity is the source of the signal in Alpha formats.)

Consider `Cn1cnc(Nc2ncc(-c3ccc(CC(=O)Nc4cnc(Cl)c(C(F)(F)F)c4)c(F)c3)cn2)c1` [Compound P-0100, N-[6-chloro-5-(trifluoromethyl)-3-pyridyl]-2-[2-fluoro-4-[2-[(1-methylimidazol-4-yl)amino]pyrimidin-5-yl]phenyl]acetamide], for which the half-maximal inhibitory concentration (IC50) in experiment [1] and in experiment [2] was 0.0001 to 10 µM in each case.

`Cn1cc(Nc2ncc(-c3ccc(CC(=O)Nc4ccnc(C(F)(F)F)c4)cc3)cn2)cn1` [Compound P-0134, 2-[4-[2-[(1-methylpyrazol-4-yl)amino]pyrimidin-5-yl]phenyl]-N-[2-(trifluoromethyl)-4-pyridyl]acetamide]: the IC50 in experiment [1] and in experiment [2] was 0.0001 to 10 µM in each case.

As to `Cn1cc(Nc2ncc(-c3ccc(CC(=O)Nc4ccc(C(F)(F)F)nc4)cc3)cn2)cn1` [Compound P-0095, 2-[4-[2-[(1-methylpyrazol-4-yl)amino]pyrimidin-5-yl]phenyl]-N-[6-(trifluoromethyl)-3-pyridyl]acetamide], the half-inhibitory concentration (IC50) in experiment [1] and in experiment [2] was 0.0001 to 10 µM each time.

In the case of `Cn1cnc(Nc2ncc(-c3ccc(CC(=O)Nc4cncc(C(C)(F)F)c4)c(F)c3)cn2)c1` [Compound P-0103, N-[5-(1,1-difluoroethyl)-3-pyridyl]-2-[2-fluoro-4-[2-[(1-methylimidazol-4-yl)amino]pyrimidin-5-yl]phenyl]acetamide], the IC50 in experiment [1] and in experiment [2] was 0.0001 to 10 µM throughout.

Turning to `Cn1cc(Nc2ncc(-c3ccc(CC(=O)Nc4ccnc(C5CC5)c4)cc3)cn2)cn1` [Compound P-0097, N-(2-cyclopropyl-4-pyridyl)-2-[4-[2-[(1-methylpyrazol-4-yl)amino]pyrimidin-5-yl]phenyl]acetamide], the half-inhibitory concentration (IC50) in experiment [1] and in experiment [2] was 0.0001 to 10 µM each time.

For `Cn1cc(Nc2ncc(-c3ccc(CC(=O)Nc4cccc(S(C)(=O)=O)c4)cc3)cn2)cn1` [Compound P-0155, 2-[4-[2-[(1-methylpyrazol-4-yl)amino]pyrimidin-5-yl]phenyl]-N-(3-methylsulfonylphenyl)acetamide], the IC50 in experiment [1] and in experiment [2] was 0.0001 to 10 µM in each case.

As for `Cn1cc(Nc2ncc(-c3ccc(CC(=O)Nc4cnnc(Cl)c4)cc3)cn2)cn1` [Compound P-0151, N-(6-chloropyridazin-4-yl)-2-[4-[2-[(1-methylpyrazol-4-yl)amino]pyrimidin-5-yl]phenyl]acetamide], the IC50 in experiment [1] and in experiment [2] was 0.0001 to 10 µM each time.

For the molecule `Cn1cc(Nc2ncc(-c3ccc(CC(=O)NCc4cccnc4)cc3)cn2)cn1` [Compound P-0132, 2-[4-[2-[(1-methylpyrazol-4-yl)amino]pyrimidin-5-yl]phenyl]-N-(3-pyridylmethyl)acetamide], the IC50 in experiment [1] and in experiment [2] was 0.0001 to 10 µM each time.

`Cn1cnc(Nc2ncc(-c3ccc(CC(=O)Nc4cc(C(C)(F)F)ccn4)c(F)c3)cn2)c1` [Compound P-0102, N-[4-(1,1-difluoroethyl)-2-pyridyl]-2-[2-fluoro-4-[2-[(1-methylimidazol-4-yl)amino]pyrimidin-5-yl]phenyl]acetamide]: the half-inhibitory concentration (IC50) in experiment [1] and in experiment [2] was 0.0001 to 10 µM throughout.

On to `Cn1cnc(Nc2ncc(-c3ccc(CC(=O)Nc4cncc(C(F)(F)F)c4)cc3)cn2)c1` [Compound P-0167], for which the IC50 in experiment [1] and in experiment [2] was 0.0001 to 10 µM each time.

In the case of `O=C(Cc1ccc(-c2cnc3[nH]c(-c4ccccc4)cc3c2)cc1F)Nc1ccnc(C(F)(F)F)c1` [Compound P-0004, 2-[2-fluoro-4-(2-phenyl-1H-pyrrolo[2,3-b]pyridin-5-yl)phenyl]-N-[2-(trifluoromethyl)-4-pyridyl]acetamide], the IC50 in experiment [1] and in experiment [2] was 0.0001 to 10 µM in each case.

As for `Cc1ncc(NC(=O)Cc2ccc(-c3cnc(Nc4cn(C)cn4)nc3)cc2F)cc1C(F)(F)F` [Compound P-0099, 2-[2-fluoro-4-[2-[(1-methylimidazol-4-yl)amino]pyrimidin-5-yl]phenyl]-N-[6-methyl-5-(trifluoromethyl)-3-pyridyl]acetamide], the IC50 in experiment [1] and in experiment [2] was 0.0001 to 10 µM each time.

On to `O=C(Cc1ccc(-c2cnc3[nH]c(-c4ccc(N5CCOCC5)nc4)cc3c2)c(F)c1)Nc1cncc(C(F)(F)F)c1` [Compound P-0198, 2-[3-fluoro-4-[2-(6-morpholino-3-pyridyl)-1H-pyrrolo[2,3-b]pyridin-5-yl]phenyl]-N-[5-(trifluoromethyl)-3-pyridyl]acetamide], for which the IC50 in experiment [1] and in experiment [2] was 0.0001 to 10 µM each time.

On to `COc1ncc(NC(=O)Cc2ccc(-c3cnc(Nc4cnn(C)c4)nc3)cc2)cc1C(F)(F)F` [Compound P-0138, N-[6-methoxy-5-(trifluoromethyl)-3-pyridyl]-2-[4-[2-[(1-methylpyrazol-4-yl)amino]pyrimidin-5-yl]phenyl]acetamide], for which the IC50 in experiment [1] and in experiment [2] was 0.0001 to 10 µM in each case.

Regarding `Cn1cc(Nc2ncc(-c3ccc(CC(=O)Nc4cccc(C(C)(C)C#N)c4)cc3)cn2)cn1` [Compound P-0158, N-[3-(1-cyano-1-methyl-ethyl)phenyl]-2-[4-[2-[(1-methylpyrazol-4-yl)amino]pyrimidin-5-yl]phenyl]acetamide], the half-inhibitory concentration (IC50) in experiment [1] and in experiment [2] was 0.0001 to 10 µM each time.

Turning to `Cn1cc(Nc2ncc(-c3ccc(CC(=O)Nc4ccc(C(C)(C)C)nc4)cc3)cn2)cn1` [Compound P-0143, N-(6-tert-butyl-3-pyridyl)-2-[4-[2-[(1-methylpyrazol-4-yl)amino]pyrimidin-5-yl]phenyl]acetamide], the half-maximal inhibitory concentration (IC50) in experiment [1] and in experiment [2] was 0.0001 to 10 µM in each case.

`O=C(Cc1ccc(-c2cnc3[nH]c(-c4ccc(N5CCOCC5)nc4)cc3c2)c(F)c1)Nc1cc(C(F)(F)F)ccn1` [Compound P-0192, 2-[3-fluoro-4-[2-(6-morpholino-3-pyridyl)-1H-pyrrolo[2,3-b]pyridin-5-yl]phenyl]-N-[4-(trifluoromethyl)-2-pyridyl]acetamide]: the half-inhibitory concentration (IC50) in experiment [1] and in experiment [2] was 0.0001 to 10 µM each time.

Take `CCn1cc(Nc2ncc(-c3ccc(CC(=O)Nc4cnc(Cl)c(C(F)(F)F)c4)cc3)cn2)cn1` [Compound P-0165, N-[6-chloro-5-(trifluoromethyl)-3-pyridyl]-2-[4-[2-[(1-ethylpyrazol-4-yl)amino]pyrimidin-5-yl]phenyl]acetamide]: the IC50 in experiment [1] and in experiment [2] was 0.0001 to 10 µM throughout.

Regarding `Cn1cc(Nc2ncc(-c3ccc(CC(=O)Nc4cnc(Cl)c(C(F)(F)F)c4)c(F)c3)cn2)cn1` [Compound P-0092, N-[6-chloro-5-(trifluoromethyl)-3-pyridyl]-2-[2-fluoro-4-[2-[(1-methylpyrazol-4-yl)amino]pyrimidin-5-yl]phenyl]acetamide], the IC50 in experiment [1] and in experiment [2] was 0.0001 to 10 µM in each case.

Take `Cn1cc(Nc2ncc(-c3ccc(CC(=O)Nc4ccc(C(F)(F)F)nc4)c(F)c3)cn2)cn1` [Compound P-0110, 2-[2-fluoro-4-[2-[(1-methylpyrazol-4-yl)amino]pyrimidin-5-yl]phenyl]-N-[6-(trifluoromethyl)-3-pyridyl]acetamide]: the IC50 in experiment [1] and in experiment [2] was 0.0001 to 10 µM each time.

Consider `Cn1cc(Nc2ncc(-c3ccc(CC(=O)Nc4ccc(C(C)(C)C#N)nc4)c(F)c3)cn2)cn1` [Compound P-0108, N-[6-(1-cyano-1-methyl-ethyl)-3-pyridyl]-2-[2-fluoro-4-[2-[(1-methylpyrazol-4-yl)amino]pyrimidin-5-yl]phenyl]acetamide], for which the IC50 in experiment [1] and in experiment [2] was 0.0001 to 10 µM each time.

For the origin of these results see US10160747B2, “Compounds and methods for kinase modulation, and indications therefor” (Plexxikon Inc., priority 2016, dated 2018).
